Source: US8778897B2, “Method of treatment using α-1-adrenergic agonist compounds” (The Regents of the University of California, priority 2008, dated 2014)

Legend:
[1] = Dose finding study, daily tail cuff blood pressure in mice; format: in vivo
Method: (§1) The alpha-1-adrenergic receptor agonist, A61603, was administered to 11 week-old wild type male C57BI6J mice using an osmotic minipump. Cardiomyopathy was induced with a single dose of doxorubicin (25 mg/kg) administered intraperitoneally. Blood pressure was measured by tail cuff, activated (phosphorylated) P-ERK by immunoblot, heart mRNA by RT-qPCR, fractional shortening (FS) by echocardiography (ECHO), myocyte necrosis by serum creatine kinase (CK), apoptosis by TUNEL stain, and fibrosis by Sirius red stain.
In a dose finding study, (0.01-100 μg/kg/day),
A61603 at 10 ng/kg/day over 7 days had no effect on daily tail cuff blood pressure, as evidenced by the average blood pressure of the control, vehicle treated mice of 115±4 mmHg and the average blood pressure of the mice treated with A61603 of 119±4 mmHg.

[2] = system: wild type male C57BI6J mice; assay: Doxorubicin-induced cardiomyopathy in wild type mice; format: in vivo; conditions: single doxorubicin 25 mg/kg i.p., A61603 10 ng/kg/day or vehicle infused over 7 days; for Fibrosis area (%): Sirius red; for Fibrosis area (%) / TUNEL-positive / ECHO FS (%) / Serum CK (U/L): mean ± SE; for TUNEL-positive: apoptosis; for Survival 7 days (%): untreated 100
Method: as §1
A61603 at the non-hypertensive dose of 10 ng/kg/day or vehicle was infused over 7 days after a single injection of doxorubicin.

[3] = system: alpha-1A adrenergic receptor; assay: Doxorubicin-induced cardiomyopathy in alpha-1A-subtype knock-out mice; format: in vivo
α1A receptor = biological target: T1, α1A receptor (Mus musculus, UniProt P97718); conditions: wild-type mice, infusion; cited from earlier work
T1 construct: host or cells: wild-type mice (whole animal, endogenous receptor)
T1 sequence (P97718 1-466): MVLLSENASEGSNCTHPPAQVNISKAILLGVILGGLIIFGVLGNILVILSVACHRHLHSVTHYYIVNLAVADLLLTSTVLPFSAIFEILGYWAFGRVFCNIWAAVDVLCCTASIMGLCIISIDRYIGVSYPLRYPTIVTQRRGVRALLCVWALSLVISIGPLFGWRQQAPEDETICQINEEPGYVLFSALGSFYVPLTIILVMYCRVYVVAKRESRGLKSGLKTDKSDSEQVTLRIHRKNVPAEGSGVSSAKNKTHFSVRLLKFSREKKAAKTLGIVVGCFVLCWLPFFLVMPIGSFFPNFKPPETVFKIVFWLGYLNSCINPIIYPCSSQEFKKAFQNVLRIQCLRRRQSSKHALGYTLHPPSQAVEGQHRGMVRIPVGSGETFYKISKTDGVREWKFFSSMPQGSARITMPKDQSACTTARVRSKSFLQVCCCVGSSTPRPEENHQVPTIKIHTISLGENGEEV

α1A-AR = α1A-AR knock-out mice, infusion; cited from earlier work
α1A receptors = conditions: cited from earlier work

SMILES	effect on daily tail cuff blood pressure ([1]; 10 ng/kg/day over 7 days)	average blood pressure ([1]; 10 ng/kg/day over 7 days, osmotic minipump, tail cuff, vehicle control 115±4 mmHg)	effect on blood pressure at higher doses ([1]; doses higher than 10 ng/kg/day (range 0.01-100 μg/kg/day))	Fibrosis area (%) [2]	TUNEL-positive [2]	ECHO FS (%) [2]	Serum CK (U/L) [2]	Survival 7 days (%) [2]	benefit of A61603 against doxorubicin cardiomyopathy ([3]; data not shown)	EC50 for increase of mean arterial pressure (α1A receptor)	increased mean arterial pressure (MAP) (α1A receptor)	increased mean arterial pressure (MAP) over basal (α1A receptor)	effect on mean arterial pressure (α1A-AR)	potency at α1A receptors relative to α1B or α1D sites (α1A receptors)	potency as α1A AR agonist compared with phenylephrine (α1A receptors; versus non-selective α1 AR agonist phenylephrine)	apoptosis and mortality compared with wild-type mice ([3]; doxorubicin)
Br.CS(=O)(=O)Nc1c(O)ccc2c1CCCC2C1=NCCN1 (stereo not drawn) [A61603, N-[5-(4,5-Dihydro-1H-imidazol-2-yl)-2-hydroxy-5,6,7,8-tetrahydronaphthalen-1-yl]methanesulfonamide hydrobromide]	no effect	119±4 mmHg	increased blood pressure	25 ± 1%	0.5 ± 0.1	67 ± 1%	571 ± 67 U/L	100%	no beneficial result	0.3 µg/kg	35 mm Hg	25%	no effect	at least 35 fold	more potent	–
COc1cccc2c1C(=O)c1c(O)c3c(c(O)c1C2=O)C[C@@](O)(C(=O)CO)C[C@@H]3O[C@H]1C[C@H](N)[C@H](O)[C@H](C)O1 [Doxorubicin, doxorubicin, reference compound]	–	–	–	32 ± 1%	1.3 ± 0.2	55 ± 3%	1204 ± 98 U/L	60%	–	–	–	–	–	–	–	increased apoptosis and mortality
